Results taken from ChEMBL document CHEMBL5113491, “Discovery of N-benzylarylamide derivatives as novel tubulin polymerization inhibitors capable of activating the Hippo pathway” (Eur J Med Chem, 2022).
pIC50: −log10 of the molar value. The source made the active and inactive calls. The calls are words filed in the database; no cut-off is given here.

Assays:
[1] = test system: KYSE-450; assay: Antiproliferative activity against human KYSE-450 cells assessed as inhibition of cell growth measured after 48 hrs by MTT assay; format: functional, cell-based; settings: KYSE-450, 48 h
[2] = test system: MGC-803; assay: Antiproliferative activity against human MGC-803 cells assessed as inhibition of cell growth measured after 48 hrs by MTT assay; format: functional, cell-based; settings: MGC-803, 48 h
[3] = test system: HCT-116; assay: Antiproliferative activity against human HCT-116 cells assessed as inhibition of cell growth measured after 48 hrs by MTT assay; format: functional, cell-based; settings: HCT-116, 48 h
[4] = species on record: Sus scrofa; assay: Inhibition of porcine brain microtubule polymerization at 3 umol/L measured after 5 sec by fluorescence based assay; settings: dose 3.0 µmol/L
[5] = Inhibition of porcine brain microtubule polymerization measured after 1 hrs by fluorescence based assay; design: species or system Sus scrofa

| SMILES | pIC50 [1] | pIC50 [2] | pIC50 [3] | inhibition [4] | pIC50 [5] |
| --- | --- | --- | --- | --- | --- |
| C/C=C/C=C/C(=O)N(Cc1ccc(OC)c(O)c1)c1cc(OC)c(OC)c(OC)c1 | 6.74 | 6.85 | 6.74 |  |  |
| COc1ccc(N(Cc2cc(OC)c(OC)c(OC)c2)C(=O)CN=[N+]=[N-])cc1O | 4.58 | 4.65 | 4.41 |  |  |
| COc1ccc(CNc2cc(OC)c(OC)c(OC)c2)cc1OC | 4.24 | 4.34 | 4.29 |  |  |
| COc1ccc(CNc2cc(OC)c(OC)c(OC)c2)cc1C | 4.13 | 4.25 | 4.22 |  |  |
| CCC/C=C/C(=O)N(Cc1ccc(OC)c(O)c1)c1cc(OC)c(OC)c(OC)c1 | 7.24 | 7.15 | 7.02 |  |  |
| C/C=C/C(=O)N(Cc1ccc(OC)cc1)c1cc(OC)c(OC)c(OC)c1 | 6.38 | 6.35 | 6.30 |  |  |
| C/C=C/C(=O)N(Cc1ccc(OC)c(Cl)c1)c1cc(OC)c(OC)c(OC)c1 | 5.00 | 5.15 | 5.85 |  |  |
| COc1ccc(N(Cc2cc(OC)c(OC)c(OC)c2)C(=O)CCl)cc1O | 4.53 | 4.61 | 4.65 |  |  |
| COc1ccc(CN(C(=O)C=C(C)C)c2cc(OC)c(OC)c(OC)c2)cc1O | 6.55 | 6.49 | 6.54 |  |  |
| COc1ccc(CNc2cc(OC)c(OC)c(OC)c2)cc1O | 5.85 | 5.83 | 5.49 | Active |  |
| CCC(=O)N(Cc1ccc(OC)c(O)c1)c1cc(OC)c(OC)c(OC)c1 | 7.01 | 7.30 | 7.21 |  |  |
| COc1cc(NCc2ccccc2)cc(OC)c1OC | < 4.10 | < 4.10 | < 4.10 |  |  |
| COc1cc(NCc2cccc(O)c2)cc(OC)c1OC | 4.15 | 4.24 | 4.17 |  |  |
| C/C=C/C(=O)N(Cc1ccc(OC)c(N)c1)c1cc(OC)c(OC)c(OC)c1 | 6.51 | 6.82 | 6.52 |  |  |
| C=C(C)C(=O)N(Cc1ccc(OC)c(O)c1)c1cc(OC)c(OC)c(OC)c1 | 6.70 | 6.41 | 6.70 |  |  |
| COc1ccc(CN(C(=O)CCCCCl)c2cc(OC)c(OC)c(OC)c2)cc1O | 6.11 | 6.27 | 6.66 |  |  |
| COc1ccc(CN(C(=O)CCl)c2cc(OC)c(OC)c(OC)c2)cc1O | 6.68 | 7.08 | 6.60 |  |  |
| COc1ccc(CN(C(=O)C(C)C)c2cc(OC)c(OC)c(OC)c2)cc1O | 6.41 | 6.68 | 6.51 |  |  |
| COc1ccc(CN(C(=O)C[Se]C#N)c2cc(OC)c(OC)c(OC)c2)cc1O | 6.55 | 6.57 | 6.51 |  |  |
| COc1ccc(CNc2cc(OC)c(OC)c(OC)c2)cc1Cl | 4.32 | 4.34 | 4.38 |  |  |
| C/C=C/C(=O)N(Cc1ccc(OC)c(Br)c1)c1cc(OC)c(OC)c(OC)c1 | 4.98 | 5.19 | 5.55 |  |  |
| COc1ccc(CNc2cc(OC)c(OC)c(OC)c2)cc1Br | 4.40 | 4.53 | 4.32 |  |  |
| C/C=C/C(=O)N(Cc1ccc(OC)c([N+](=O)[O-])c1)c1cc(OC)c(OC)c(OC)c1 | 6.29 | 6.23 | 6.17 |  |  |
| COc1ccc(NCc2cc(OC)c(OC)c(OC)c2)cc1O | 5.38 | 5.02 | 5.28 | Active |  |
| COc1cc(NCc2ccc(C)cc2)cc(OC)c1OC | < 4.10 | < 4.10 | < 4.10 |  |  |
| COc1ccc(CN(C(=O)C(C)Br)c2cc(OC)c(OC)c(OC)c2)cc1O (centres undefined) | 6.80 | 6.92 | 6.85 |  |  |

| SMILES | pIC50 [1] | pIC50 [2] | pIC50 [3] | inhibition [4] | pIC50 [5] |
| --- | --- | --- | --- | --- | --- |
| COc1ccc(CNc2cc(OC)c(OC)c(OC)c2)cc1 | 5.31 | 4.94 | 4.74 |  |  |
| COc1ccc(CNc2cc(OC)c(OC)c(OC)c2)cc1N | 5.66 | 5.10 | 5.08 |  |  |
| CC/C=C/C(=O)N(Cc1ccc(OC)c(O)c1)c1cc(OC)c(OC)c(OC)c1 | 7.14 | 7.24 | 7.20 |  |  |
| COc1ccc(CN(C(=O)/C=C/CBr)c2cc(OC)c(OC)c(OC)c2)cc1O | 7.00 | 7.15 | 7.23 |  |  |
| C/C=C/C(=O)N(Cc1ccc(OC)c(OC)c1)c1cc(OC)c(OC)c(OC)c1 | 4.41 | 4.70 | 4.48 |  |  |
| COc1cc(NCc2ccc(Br)cc2)cc(OC)c1OC | < 4.10 | < 4.10 | < 4.10 |  |  |
| C#CC(=O)N(Cc1ccc(OC)c(O)c1)c1cc(OC)c(OC)c(OC)c1 | 6.24 | 6.77 | 6.51 |  |  |
| COC(=O)c1cc(CNc2cc(OC)c(OC)c(OC)c2)ccc1OC | 4.39 | 4.30 | 4.42 |  |  |
| C/C=C/C(=O)N(Cc1ccc(OC)c(F)c1)c1cc(OC)c(OC)c(OC)c1 | 5.85 | 5.78 | 5.94 |  |  |
| COc1cc(NCc2ccc(Cl)cc2)cc(OC)c1OC | < 4.10 | < 4.10 | < 4.10 |  |  |
| COc1ccc(CNc2cc(OC)c(OC)c(OC)c2)cc1F | 4.34 | 4.40 | 4.49 |  |  |
| COc1ccc(CN(C(=O)CO)c2cc(OC)c(OC)c(OC)c2)cc1O | 6.43 | 6.80 | 6.28 |  |  |
| COc1ccc(CN(C(=O)CN=[N+]=[N-])c2cc(OC)c(OC)c(OC)c2)cc1O | 6.80 | 6.92 | 6.39 |  |  |
| C/C=C/C(=O)N(Cc1ccc(OC)c(C)c1)c1cc(OC)c(OC)c(OC)c1 | 4.48 | 4.84 | 4.63 |  |  |
| COc1ccc(/C=C\c2cc(OC)c(OC)c(OC)c2)cc1O [COMBRETASTATIN A4] | 7.92 | 8.10 | 8.00 |  | 5.17 |
| COc1cc2c(c(OC)c1OC)-c1ccc(OC)c(=O)cc1[C@@H](NC(C)=O)CC2 [COLCHICINE] | 7.11 | 7.21 | 7.09 |  |  |
| COc1ccc(CN(C(=O)CCCl)c2cc(OC)c(OC)c(OC)c2)cc1O | 6.96 | 6.85 | 6.82 |  |  |
| COc1ccc(CNc2cc(OC)c(OC)c(OC)c2)cc1[N+](=O)[O-] | 4.77 | 4.71 | 4.74 |  |  |
| COc1ccc(CN(C(C)=O)c2cc(OC)c(OC)c(OC)c2)cc1O | 6.80 | 7.10 | 6.57 |  |  |
| C=CC(=O)N(Cc1ccc(OC)c(O)c1)c1cc(OC)c(OC)c(OC)c1 | 6.80 | 7.21 | 7.01 |  |  |
| C/C=C/C(=O)N(Cc1cc(OC)c(OC)c(OC)c1)c1ccc(OC)c(O)c1 | 5.04 | 5.21 | 5.07 |  |  |
| C/C=C/C(=O)N(Cc1cccc(O)c1)c1cc(OC)c(OC)c(OC)c1 | 4.83 | 4.85 | 5.17 |  |  |
| COc1ccc(CN(C(=O)C2CC2)c2cc(OC)c(OC)c(OC)c2)cc1O | 7.10 | 7.23 | 7.31 |  |  |
| COc1ccc(CN(C(=O)CBr)c2cc(OC)c(OC)c(OC)c2)cc1O | 6.92 | 6.85 | 7.17 |  |  |
| COCC(=O)N(Cc1ccc(OC)c(O)c1)c1cc(OC)c(OC)c(OC)c1 | 6.34 | 7.10 | 6.64 |  |  |
| CCCCC(=O)N(Cc1ccc(OC)c(O)c1)c1cc(OC)c(OC)c(OC)c1 | 6.52 | 7.18 | 6.77 |  |  |
